For two compounds, IC50 results are on record in patent US6576657B2, “Amidino derivatives and their use as thrombin inhibitors” (AstraZeneca AB, priority 1997, dated 2003).

For the experiment, the target named is T1, Human thrombin (Homo sapiens, UniProt P00734).
T1 construct: conversion of the proenzyme prothrombin to the active enzyme thrombin; purchased Sigma Chem Co T 6769
Briefly: Test A: determination of thrombin clotting time (TT). In kind it is biochemical. The note with it: concentration of inhibitor that doubles the thrombin clotting time for human plasma. The protocol:
Determination of Thrombin Clotting Time (TT)
The inhibitor solution (25 μL) was incubated with plasma (25 μL) for three minutes. Human thrombin (T 6769; Sigma Chem Co) in buffer solution, pH 7.4 (25 μL) was then added and the clotting time measured in an automatic device (KC 10; Amelung).
The clotting time in seconds was plotted against the inhibitor concentration, and the IC50TT was determined by interpolation.
IC50TT is the concentration of inhibitor in the test that doubles the thrombin clotting time for human plasma.

Consider `COc1ccc2c(c1)C(O)(C(=O)N1CCC1C(=O)N(C)Cc1ccc(C(=N)N)cc1)CCC2` (single isomer, unassigned) [Example 37, (S)- or (R)-1-Hydroxy-7-methoxytetralin-1-yl-C(O)-Aze-N(Me)-Bzl-4-C(NH2)NH×HOAc], for which the IC50 is under 300 nM.
The figure for `N=C(N)c1ccc(CNC(=O)[C@@H]2CCN2C(=O)C2(O)c3ccccc3-c3ccccc32)cc1` [Example 38, 9-Hydroxyfluoren-9-yl-C(O)-Aze-Pab×HOAc] is under 300 nM.

The IC50 is the concentration needed to halve the response being measured. A high value points to weaker potency in that assay.
